Data from patent US4904659A, “Substituted quinoline derivatives and pharmaceutical compositions thereof” (Development Finance Corporation of New Zeland, priority 1985, dated 1990).
Like-named read-outs stand apart in the source and are kept apart here.

Legend:
Lewis lung carcinoma = assay: In vivo antitumour activity against Lewis lung carcinoma (cells inoculated intravenously); set-up: species or system mice (F1 hybrids of DBA/2J male x C57BL/6J female); settings: for LL in vivo ILS (percentage increase in lifespan) / LL in vivo Active: Lewis lung carcinoma; for LL in vivo ILS (percentage increase in lifespan): at optimal dose (OD), intraperitoneal, days 1, 5 and 9, control survival 17 days; for LL in vivo Active: at the stated dose, ILS greater than 40% significant; for LL in vivo number of long-term survivors: number in parentheses after ILS, out of a group of 6, Lewis lung carcinoma
Procedure: (§1) OD--The optimal drug dose (in milligrams per kilogram), administered intraperitoneally as a solution in 0.1 ml of 30% v/v ethyl alcohol in water on days 1, 5 and 9 after tumour inoculation. The drug is administered as a soluble acid addition salt.
(§2) ILSmax--The percentage increase in lifespan of treated animals over that of control animals injected with tumour alone. The average survival of control mice was 11 days (for P388 leukemia) and 17 days (for Lewis lung carcinoma) ILS values greater than 20% (P388 leukemia) and 40% (Lewis lung carcinoma) are considered statistically significant. Numbers in parentheses after ILS values indicate the number of long-term survivors (out of a group of 6).
(§3) Y--Implies a significant value of drug activity at the stated dose.
(§4) N--Implies no statistically significant activity.
LL--Is the Lewis lung carcinoma.
(§5) Both of these tumour lines were obtained as frozen cell stocks from Mason Research Inc., USA and are passaged intraperitoneally in DBA/25 mice of either sex (P388) or subcutaneously in C57BL/65 mice of either sex (LL) according to the standard methods (Cancer Chemother. Reports., 3, Part 3, p9, 1972).
(§6) Groups of six mice (F1 hybrids of DBA/2J male x C57BL/6J female) were injected intraperitoneally (P388) or intravenously (tail vein, LL), with 10^6 tumour cells on day 0. When given in this manner, P388 cells grow diffusely in the peritoneal cavity, whereas the Lewis lung cells from distinct solid tumour nodules in the lungs. Antitumour activity is determined by published methods (European J. Cancer, 19, pp.1607-1613, 1983).

[1] = Rm: lipophilic-hydrophilic balance from reversed phase partition chromatography; format: physicochemical; settings: linearly related to 1-octanol/water partition coefficients
Text: Rm-a measure of the compound's liphophilic-hydrophilic balance from reversed phase partition chromatography. Rm is linearly related to partition coefficients obtained in the 1-octanol/water system.

L1210 leukemia cells = assay: Growth inhibition of cultured L1210 leukemia cells (70 h, counted cell numbers); format: cell-based; settings: Mus musculus, L1210 leukemia cells, 70 h, cell numbers reduced to 50% of controls
P388 leukemia = assay: In vivo antitumour activity against P388 leukemia (cells inoculated intraperitoneally); set-up: species or system mice (F1 hybrids of DBA/2J male x C57BL/6J female); settings: P388 leukemia; for P388 in vivo ILS (percentage increase in lifespan): at optimal dose (OD), intraperitoneal, days 1, 5 and 9, control survival 11 days; for P388 in vivo Active: at the stated dose, ILS greater than 20% significant
Procedure: as §1, §2, §3, §4, §5, §6

[2] = read-out: In vitro L1210 (IC50)

CN(C)CCCNC(=O)c1cccc2ccc(-c3ccccc3)nc12 [Compound 2]
LL in vivo ILS (percentage increase in lifespan) (Lewis lung carcinoma): < 40% | LL in vivo Active (Lewis lung carcinoma): N (Implies no statistically significant activity) | chromatographic logP [1]: 0.06 | IC50 (L1210 leukemia cells; [2]): 1140 nM | P388 in vivo ILS (percentage increase in lifespan) (P388 leukemia): 71% | P388 in vivo Active (P388 leukemia): Y (Implies a significant value of drug activity at the stated dose)

CN(C)CCNC(=O)c1cc([N+](=O)[O-])cc2ccc(-c3ccccc3)nc12 [Compound 26]
P388 in vivo ILS (percentage increase in lifespan) (P388 leukemia): 63% | P388 in vivo Active (P388 leukemia): Y (Implies a significant value of drug activity at the stated dose)

COc1ccc(-c2ccc3cccc(C(=O)NCCN(C)C)c3n2)cc1 [Compound 18]
chromatographic logP [1]: -0.16 | IC50 (L1210 leukemia cells; read-out: In vitro L1210 (IC50), cell printed with unit nm): 1290 nM | P388 in vivo ILS (percentage increase in lifespan) (P388 leukemia): 42% | P388 in vivo Active (P388 leukemia): Y (Implies a significant value of drug activity at the stated dose)

CN(C)CCNC(=O)c1cccc2ccc(-c3ccc(Cl)cc3)nc12 [Compound 14]
LL in vivo ILS (percentage increase in lifespan) (Lewis lung carcinoma): 91% | LL in vivo Active (Lewis lung carcinoma): Y (Implies a significant value of drug activity at the stated dose) | LL in vivo number of long-term survivors (Lewis lung carcinoma): 4 | chromatographic logP [1]: 0.05 | IC50 (L1210 leukemia cells; [2]): 1170 nM | P388 in vivo ILS (percentage increase in lifespan) (P388 leukemia): 52% | P388 in vivo Active (P388 leukemia): Y (Implies a significant value of drug activity at the stated dose)

CN(C)CCNC(=O)c1ccc(Cl)c2ccc(-c3ccccc3)nc12 [Compound 25]
P388 in vivo ILS (percentage increase in lifespan) (P388 leukemia): 63% | P388 in vivo Active (P388 leukemia): Y (Implies a significant value of drug activity at the stated dose)

CN(C)CCNC(=O)c1cccc2ccc(-c3ccc(NS(C)(=O)=O)cc3)nc12 [Compound 23]
chromatographic logP [1]: -0.38 | IC50 (L1210 leukemia cells; [2]): 1330 nM | P388 in vivo ILS (percentage increase in lifespan) (P388 leukemia): < 20% | P388 in vivo Active (P388 leukemia): N (Implies no statistically significant activity)

CN(C)CCNC(=O)c1cccc2ccc(-c3ccccc3Cl)nc12 [Compound 8]
chromatographic logP [1]: 0.15 | IC50 (L1210 leukemia cells; [2]): 8100 nM | P388 in vivo ILS (percentage increase in lifespan) (P388 leukemia): < 20% | P388 in vivo Active (P388 leukemia): N (Implies no statistically significant activity)

CN(C)CCCCCNC(=O)c1cccc2ccc(-c3ccccc3)nc12 [Compound 4]
LL in vivo ILS (percentage increase in lifespan) (Lewis lung carcinoma): < 40% | LL in vivo Active (Lewis lung carcinoma): N (Implies no statistically significant activity) | chromatographic logP [1]: 0.21 | IC50 (L1210 leukemia cells; [2]): 1300 nM | P388 in vivo ILS (percentage increase in lifespan) (P388 leukemia): < 20% | P388 in vivo Active (P388 leukemia): N (Implies no statistically significant activity)

CN(C)CCNC(=O)c1cccc2ccc(-c3ccc(F)cc3)nc12 [Compound 13]
P388 in vivo ILS (percentage increase in lifespan) (P388 leukemia): < 20% | P388 in vivo Active (P388 leukemia): N (Implies no statistically significant activity)

CC(=O)Nc1ccc(-c2ccc3cccc(C(=O)NCCN(C)C)c3n2)cc1 [Compound 22]
IC50 (L1210 leukemia cells; [2]): 740 nM | P388 in vivo ILS (percentage increase in lifespan) (P388 leukemia): < 20% | P388 in vivo Active (P388 leukemia): N (Implies no statistically significant activity)

CN(C)CCNC(=O)c1cccc2ccc(-c3ccc(Br)cc3)nc12 [Compound 15]
IC50 (L1210 leukemia cells; [2]): 600 nM | P388 in vivo ILS (percentage increase in lifespan) (P388 leukemia): 72% | P388 in vivo Active (P388 leukemia): Y (Implies a significant value of drug activity at the stated dose)

CN(C)CCCCNC(=O)c1cccc2ccc(-c3ccccc3)nc12 [Compound 3]
LL in vivo ILS (percentage increase in lifespan) (Lewis lung carcinoma): 148% | LL in vivo Active (Lewis lung carcinoma): Y (Implies a significant value of drug activity at the stated dose) | LL in vivo number of long-term survivors (Lewis lung carcinoma): 2 | chromatographic logP [1]: 0.14 | IC50 (L1210 leukemia cells; [2]): 680 nM | P388 in vivo ILS (percentage increase in lifespan) (P388 leukemia): 93% | P388 in vivo Active (P388 leukemia): Y (Implies a significant value of drug activity at the stated dose)

CN(C)CCNC(=O)c1cccc2ccc(-c3ccc(N)cc3)nc12 [Compound 21]
LL in vivo ILS (percentage increase in lifespan) (Lewis lung carcinoma): 65% | LL in vivo Active (Lewis lung carcinoma): Y (Implies a significant value of drug activity at the stated dose) | chromatographic logP [1]: -0.76 | IC50 (L1210 leukemia cells; [2]): 200 nM | P388 in vivo ILS (percentage increase in lifespan) (P388 leukemia): 28% | P388 in vivo Active (P388 leukemia): Y (Implies a significant value of drug activity at the stated dose)

CN(C)CCNC(=O)c1cccc2ccc(-c3ccc(-c4ccccc4)cc3)nc12 [Compound 17]
IC50 (L1210 leukemia cells; [2]): 1290 nM | P388 in vivo ILS (percentage increase in lifespan) (P388 leukemia): < 20% | P388 in vivo Active (P388 leukemia): N (Implies no statistically significant activity)

CN(C)CCNC(=O)c1cccc2ccc(-c3cccnc3)nc12 [Compound 9]
LL in vivo ILS (percentage increase in lifespan) (Lewis lung carcinoma): 52% | LL in vivo Active (Lewis lung carcinoma): Y (Implies a significant value of drug activity at the stated dose) | LL in vivo number of long-term survivors (Lewis lung carcinoma): 2 | chromatographic logP [1]: -0.58 | IC50 (L1210 leukemia cells; [2]): 840 nM | P388 in vivo ILS (percentage increase in lifespan) (P388 leukemia): 58% | P388 in vivo Active (P388 leukemia): Y (Implies a significant value of drug activity at the stated dose)

CN(C)CCNC(=O)c1cccc2ccc(-c3ccc(I)cc3)nc12 [Compound 16]
P388 in vivo ILS (percentage increase in lifespan) (P388 leukemia): 48% | P388 in vivo Active (P388 leukemia): Y (Implies a significant value of drug activity at the stated dose)

CN(C)CCNC(=O)c1cccc2ccc(-c3ccc([N+](=O)[O-])cc3)nc12 [Compound 20]
LL in vivo ILS (percentage increase in lifespan) (Lewis lung carcinoma): 85% | LL in vivo Active (Lewis lung carcinoma): Y (Implies a significant value of drug activity at the stated dose) | chromatographic logP [1]: -0.18 | IC50 (L1210 leukemia cells; [2]): 290 nM | P388 in vivo ILS (percentage increase in lifespan) (P388 leukemia): 71% | P388 in vivo Active (P388 leukemia): Y (Implies a significant value of drug activity at the stated dose)

O=C(NCCNCCO)c1cccc2ccc(-c3ccccc3)nc12 [Compound 5]
P388 in vivo ILS (percentage increase in lifespan) (P388 leukemia): < 20% | P388 in vivo Active (P388 leukemia): N (Implies no statistically significant activity)

COc1cccc(-c2ccc3cccc(C(=O)NCCN(C)C)c3n2)c1 [Compound 11]
IC50 (L1210 leukemia cells; [2]): 860 nM | P388 in vivo ILS (percentage increase in lifespan) (P388 leukemia): 46% | P388 in vivo Active (P388 leukemia): Y (Implies a significant value of drug activity at the stated dose)

CN(C)CCNC(=O)c1cccc2ccc(-c3ccc(O)cc3)nc12 [Compound 19]
chromatographic logP [1]: -0.33 | IC50 (L1210 leukemia cells; [2]): 27 nM | P388 in vivo ILS (percentage increase in lifespan) (P388 leukemia): 22% | P388 in vivo Active (P388 leukemia): Y (Implies a significant value of drug activity at the stated dose)
